This test deals with T1, human ether-a-go-go-related gene (hERG) channel (Homo sapiens, UniProt Q12809).
T1 construct: gene KCNH2
As to the kind of experiment: whole-cell patch clamp, hERG tail current in HEK-293 cells. Format: cell-based. An excerpt: whole-cell patch clamp, hERG tail current in HEK-293 cells on human ether-a-go-go-related gene (hERG) channel | etomidate inhibited the tail current of the hERG in a concentration-dependent manner | The etomidate analogue, ET-26 HCl, inhibited the hERG current in a similar concentration-dependent manner
In general terms: Patch clamp records ionic current or voltage across a cell membrane.

Counter-ions that a name gives are not always drawn.

T1 sequence (Q12809 whole entry): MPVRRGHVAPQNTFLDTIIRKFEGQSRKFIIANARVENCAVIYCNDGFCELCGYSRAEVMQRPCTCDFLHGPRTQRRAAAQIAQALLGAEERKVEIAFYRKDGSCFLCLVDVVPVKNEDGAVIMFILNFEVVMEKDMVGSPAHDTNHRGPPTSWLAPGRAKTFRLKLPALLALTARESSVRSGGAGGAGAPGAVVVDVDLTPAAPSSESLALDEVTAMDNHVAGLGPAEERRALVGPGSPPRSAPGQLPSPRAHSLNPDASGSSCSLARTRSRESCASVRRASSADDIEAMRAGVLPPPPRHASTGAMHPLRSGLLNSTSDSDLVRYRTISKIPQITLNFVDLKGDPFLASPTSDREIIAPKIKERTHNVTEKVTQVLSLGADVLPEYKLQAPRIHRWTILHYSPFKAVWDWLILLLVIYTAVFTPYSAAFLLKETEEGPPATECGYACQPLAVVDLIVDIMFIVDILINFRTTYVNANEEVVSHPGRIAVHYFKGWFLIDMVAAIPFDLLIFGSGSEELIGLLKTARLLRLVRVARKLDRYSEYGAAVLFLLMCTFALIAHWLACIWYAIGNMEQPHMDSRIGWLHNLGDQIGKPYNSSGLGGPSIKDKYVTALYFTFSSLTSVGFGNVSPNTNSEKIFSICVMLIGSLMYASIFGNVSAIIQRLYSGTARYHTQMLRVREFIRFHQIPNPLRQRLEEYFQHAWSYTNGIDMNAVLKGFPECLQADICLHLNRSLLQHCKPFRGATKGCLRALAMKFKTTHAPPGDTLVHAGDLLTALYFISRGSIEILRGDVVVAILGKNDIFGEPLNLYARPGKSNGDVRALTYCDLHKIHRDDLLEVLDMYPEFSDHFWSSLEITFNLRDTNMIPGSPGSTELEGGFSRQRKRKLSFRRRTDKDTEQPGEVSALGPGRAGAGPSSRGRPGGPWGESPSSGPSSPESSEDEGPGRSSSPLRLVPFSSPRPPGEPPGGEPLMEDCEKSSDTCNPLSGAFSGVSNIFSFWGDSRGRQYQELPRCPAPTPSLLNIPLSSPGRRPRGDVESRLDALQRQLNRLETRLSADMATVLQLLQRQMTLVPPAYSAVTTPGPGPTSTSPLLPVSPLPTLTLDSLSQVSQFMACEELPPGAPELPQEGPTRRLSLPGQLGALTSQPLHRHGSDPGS

A word on the IC50: it is the concentration at which inhibition is half-maximal. On to `CCOC(=O)c1cncn1[C@H](C)c1ccccc1` [etomidate], for which the IC50 was found to be 264 µM.
Then `COCCOC(=O)c1cncn1[C@H](C)c1ccccc1` [ET-26 HCl, (R)-2-methoxyethyl1-(1-phenylethyl)-1H-imidazole-5-carboxylate hydrochloride], with 743 µM.

Source of the values: paper PMC5764323, “The etomidate analog ET-26 HCl retains superior myocardial performance: Comparisons with etomidate in vivo and in vitro” (PLoS ONE, 2018).
